# Experimental data reported in publication PMC5352738, “Characterization of three pyranose dehydrogenase isoforms from the litter-decomposing basidiomycete Leucoagaricus meleagris (syn. Agaricus meleagris)” (Applied Microbiology and Biotechnology, 2016).
# Legend:
# Type in all cases: biochemical
# AmPDH1 [1] = biological target: T1, AmPDH1 (Macropsalliota meleagris, UniProt Q3L245); assay: steady-state kinetics, absorbance at […] nm; details: read-out: AmPDH1 / K m
# T1 construct: gene pdh1; full-length pdh1 (602 aa precursor) in pPICZB-His6, His6-tag kept, secreted from Pichia pastoris X33; N-glycosylated monomer, ~65 kDa deglycosylated; covalent FAD
# T1 sequence (Q3L245 26-602): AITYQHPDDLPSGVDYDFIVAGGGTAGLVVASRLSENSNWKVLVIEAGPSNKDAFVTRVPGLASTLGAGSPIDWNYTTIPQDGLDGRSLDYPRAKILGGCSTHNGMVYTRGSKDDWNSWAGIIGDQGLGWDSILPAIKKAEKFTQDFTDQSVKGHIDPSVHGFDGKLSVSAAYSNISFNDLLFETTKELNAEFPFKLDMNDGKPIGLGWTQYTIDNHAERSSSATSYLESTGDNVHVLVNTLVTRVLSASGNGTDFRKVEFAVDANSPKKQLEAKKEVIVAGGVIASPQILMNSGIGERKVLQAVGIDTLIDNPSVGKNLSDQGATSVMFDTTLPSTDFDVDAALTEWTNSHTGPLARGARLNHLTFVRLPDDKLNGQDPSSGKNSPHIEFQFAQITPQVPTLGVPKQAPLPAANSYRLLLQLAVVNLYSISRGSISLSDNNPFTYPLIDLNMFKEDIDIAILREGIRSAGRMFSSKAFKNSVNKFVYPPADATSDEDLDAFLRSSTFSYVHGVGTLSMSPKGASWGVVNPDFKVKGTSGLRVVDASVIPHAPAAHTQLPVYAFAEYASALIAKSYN
# AmPDH1 [2] = biological target: T1, AmPDH1; assay: steady-state ferrocenium assay, […] nm; details: electron donor; 0.2 mM ferrocenium, 50 mM Na phosphate pH 7.5, 30 °C; read-out: AmPDH1 / K m
# AmPDH3 = biological target: T2, AmPDH3 (Macropsalliota meleagris, UniProt Q0R4L2); assay: steady-state kinetics, absorbance at […] nm; details: electron acceptor; 25 mM D-glucose, 100 mM Na borate pH 8.5, 30 °C; read-out: AmPDH3 / K m
# T2 construct: gene pdh3; full-length pdh3 (600 aa precursor) in pPICZB-His6, His6-tag kept, secreted from Pichia pastoris X33; strongly N-glycosylated, ~65 kDa deglycosylated; standard yellow form with covalent FAD
# T2 sequence (Q0R4L2 26-600): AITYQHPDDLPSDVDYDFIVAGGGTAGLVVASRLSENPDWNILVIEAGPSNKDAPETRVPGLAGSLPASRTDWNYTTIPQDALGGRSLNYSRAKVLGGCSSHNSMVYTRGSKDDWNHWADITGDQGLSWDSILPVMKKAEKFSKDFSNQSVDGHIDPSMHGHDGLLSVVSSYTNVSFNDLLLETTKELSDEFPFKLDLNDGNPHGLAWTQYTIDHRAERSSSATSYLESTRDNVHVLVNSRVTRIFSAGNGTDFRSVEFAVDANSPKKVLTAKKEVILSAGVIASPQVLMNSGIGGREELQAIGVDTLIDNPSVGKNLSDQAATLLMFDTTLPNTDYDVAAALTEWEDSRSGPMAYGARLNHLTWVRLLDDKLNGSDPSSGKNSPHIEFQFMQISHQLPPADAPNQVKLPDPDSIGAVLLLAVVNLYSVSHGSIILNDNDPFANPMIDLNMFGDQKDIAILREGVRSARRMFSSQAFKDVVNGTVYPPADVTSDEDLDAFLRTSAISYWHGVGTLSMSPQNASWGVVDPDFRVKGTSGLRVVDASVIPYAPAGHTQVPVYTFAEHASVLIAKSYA
# AmPDH1 [3] = biological target: T1, AmPDH1; assay: steady-state kinetics, absorbance at […] nm; details: electron acceptor; 25 mM D-glucose, 100 mM Na borate pH 8.5, 30 °C; read-out: AmPDH1 / K m
# AmPDH2 = biological target: T3, AmPDH2 (Macropsalliota meleagris, UniProt Q3L243); assay: steady-state kinetics, absorbance at […] nm; details: electron acceptor; 25 mM D-glucose, 100 mM Na borate pH 8.5, 30 °C; read-out: AmPDH2 / K m
# T3 construct: gene pdh2; full-length pdh2 (600 aa precursor) in pPICZB-His6, His6-tag kept, secreted from Pichia pastoris X33; N-glycosylated, ~65 kDa deglycosylated; covalent FAD
# T3 sequence (Q3L243 26-600): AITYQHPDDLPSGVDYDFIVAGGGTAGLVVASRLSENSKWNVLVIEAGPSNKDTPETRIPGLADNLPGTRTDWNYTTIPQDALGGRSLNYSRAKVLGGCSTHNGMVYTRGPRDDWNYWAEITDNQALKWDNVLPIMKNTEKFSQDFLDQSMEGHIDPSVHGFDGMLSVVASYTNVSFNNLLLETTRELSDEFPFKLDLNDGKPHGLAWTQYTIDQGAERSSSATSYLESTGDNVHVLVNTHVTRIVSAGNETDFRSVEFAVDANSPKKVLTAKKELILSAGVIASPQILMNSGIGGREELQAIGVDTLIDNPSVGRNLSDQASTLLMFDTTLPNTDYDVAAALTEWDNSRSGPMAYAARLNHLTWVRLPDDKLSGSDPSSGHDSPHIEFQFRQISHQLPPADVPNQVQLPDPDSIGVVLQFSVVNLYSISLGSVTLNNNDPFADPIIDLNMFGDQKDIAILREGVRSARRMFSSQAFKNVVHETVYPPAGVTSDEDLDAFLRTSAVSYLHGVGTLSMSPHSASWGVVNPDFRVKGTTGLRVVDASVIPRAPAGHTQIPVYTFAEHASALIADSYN
smiles,measurement,setting,value
"O=C1C=CC(=O)C=C1 [1,4-benzoquinone]",Km,AmPDH1 [1],1380 ± 280 µM
OC[C@H]1OC(O)[C@H](O)[C@@H](O)[C@@H]1O (stereo partly drawn) [D-glucose],Km,AmPDH1 [2],820 ± 10 µM
C1=CCC=C1.C1=CCC=C1.[Fe+3] [ferrocenium cation],Km,AmPDH3,10.3 ± 0.9 µM
same,Km,AmPDH1 [3],161 ± 38 µM
same,Km,AmPDH2,20.1 ± 2.3 µM
